Measurements reported in ChEMBL document CHEMBL1123567, “2-Oxo-1,8-naphthyridine-3-carboxylic acid derivatives with potent gastric antisecretory properties” (1987).

Legend:
Rattus norvegicus [1] = test: Antisecretory activity at 32 mg/kg dose administered intraduodenally in the pylorus-ligated rat; format: functional; conditions: route intraduodenal
Rattus norvegicus [2] = test: Antisecretory activity (total acid output) at 4 mg/kg dose administered intraduodenally in the pylorus-ligated rat; format: functional; conditions: route intraduodenal
Rattus norvegicus [3] = test: Antisecretory activity (total acid output) at 8 mg/kg dose administered intraduodenally in the pylorus-ligated rat; format: functional; conditions: route intraduodenal
Rattus norvegicus [4] = test: Antisecretory activity (total acid output) at 2 mg/kg dose administered intraduodenally in the pylorus-ligated rat; format: functional; conditions: route intraduodenal
Canis familiaris [5] = test: Antisecretory activity (total acid output) at 2 mg/kg dose administered (po) in Gastric pouch dog was determined by dose related inhibition of food stimulated gastric acid secretion; format: functional, Canis lupus familiaris, Stomach; parameters: scale not given: the % may be the effect or the level left
Rattus norvegicus [6] = test: Antisecretory activity (total acid output) at 16 mg/kg dose administered intraduodenally in the pylorus-ligated rat; format: functional; conditions: route intraduodenal
Canis familiaris [7] = test: Antisecretory activity (total acid output) at 4 mg/kg dose administered (po) in Gastric pouch dog was determined by dose related inhibition of food stimulated gastric acid secretion; format: functional, Canis lupus familiaris, Stomach; parameters: scale not given: the % may be the effect or the level left
Rattus norvegicus [8] = test: Antisecretory activity (total acid output) at 0.5 mg/kg dose administered intraduodenally in the pylorus-ligated rat; format: functional; conditions: route intraduodenal
Canis familiaris [9] = test: Antisecretory activity (total acid output) at 8 mg/kg dose administered (po) in Gastric pouch dog was determined by dose related inhibition of food stimulated gastric acid secretion; format: functional, Canis lupus familiaris, Stomach; parameters: scale not given: the % may be the effect or the level left
Canis familiaris [10] = test: Antisecretory activity (total acid output) at 16 mg/kg dose administered (po) in Gastric pouch dog was determined by dose related inhibition of food stimulated gastric acid secretion; format: functional, Canis lupus familiaris, Stomach; parameters: scale not given: the % may be the effect or the level left

CCn1c(=O)c(C(=O)NN)c(N)c2cccnc21
Control (Rattus norvegicus [1]): 29%

CCn1c(=O)c(C(N)=O)c(N)c2ccc(C)nc21
Control (Rattus norvegicus [1]): 55%

CCn1c(=O)c(C(=O)O)c(N)c2cc(NC(C)=O)cnc21
Control (Rattus norvegicus [1]): 82%

CCCn1c(=O)c(C(=O)OCC)c(N)c2cccnc21
Control (Rattus norvegicus [1]): 30%

CCOC(=O)c1c(Cl)c2ccc(C)nc2n(CC)c1=O
Control (Rattus norvegicus [1]): 66%

CCOC(=O)c1c(O)c2cccnc2n(CC)c1=O
Control (Rattus norvegicus [1]): 63%

CCOC(=O)c1c(N2CCCC2)c2cccnc2n(C)c1=O
Control (Rattus norvegicus [1]): 51%

CCOC(=O)c1c(N)c2cccnc2n(CC(C)C)c1=O
Control (Rattus norvegicus [1]): 28%

CCn1c(=O)c(C(=O)O)c(N)c2cccnc21
Control (Rattus norvegicus [1]): 37%

CCn1c(=O)c(C(N)=O)c(N)c2cccnc21
Control (Rattus norvegicus [1]): 19%

CCOC(=O)c1c(N)c2cccnc2n(C2CCCCC2)c1=O
Control (Rattus norvegicus [1]): 48%

CCOC(=O)c1c(N2CCNCC2)c2ccc(C)nc2n(CC)c1=O
Control (Rattus norvegicus [1]): 10%

C=CCn1c(=O)c(C(=O)O)c(NC(=O)CCl)c2cccnc21
Control (Rattus norvegicus [1]): 63%

CCOC(=O)c1c(N2CCN(C)CC2)c2ccc(C)nc2n(CC)c1=O
Control (Rattus norvegicus [2]): 66% | Control (Rattus norvegicus [3]): 45% | Control (Rattus norvegicus [4]): 85% | Control (Rattus norvegicus [1]): 7.5% | Control (Canis familiaris [5]): 95% | Control (Rattus norvegicus [6]): 28% | Control (Canis familiaris [7]): 40%

CCOC(=O)c1c(O)nc2nc(C)ccc2c1N1CCN(C)CC1
Control (Rattus norvegicus [1]): 34%

CCOC(=O)c1c(NCCCN(C)C)c2ccc(C)nc2n(CC)c1=O
Control (Rattus norvegicus [1]): 77%

CCNc1c(C(=O)OCC)c(=O)n(CC)c2nc(C)ccc12
Control (Rattus norvegicus [1]): 36%

CCn1c(=O)c(C#N)c(N)c2ccc(C)nc21
Control (Rattus norvegicus [1]): 62%

CCOC(=O)c1c(N)c2ccc(C)nc2n(CCO)c1=O
Control (Rattus norvegicus [1]): 74%

CCOC(=O)c1c(N(C(C)=O)C(C)=O)c2cccnc2n(CC)c1=O
Control (Rattus norvegicus [1]): 59%

CCN(CC)CCNC(=O)c1c(N)c2cccnc2n(CC)c1=O
Control (Rattus norvegicus [1]): 56%

CCOC(=O)c1c(N2CCCC2)c2ccc(C)nc2n(CC)c1=O
Control (Rattus norvegicus [1]): 29%

CCOC(=O)c1c(N(C)CCO)c2ccc(C)nc2n(CC)c1=O
Control (Rattus norvegicus [1]): 59%

CCn1c(=O)c(C(=O)O)c(N2CCN(C)CC2)c2ccc(C)nc21
Control (Rattus norvegicus [1]): 89%

CCC(C)OC(=O)c1c(N)c2cccnc2n(CC)c1=O (stereo unspecified)
Control (Rattus norvegicus [1]): 42%

CCN(CC)CCOC(=O)c1c(N)c2cccnc2n(CC)c1=O
Control (Rattus norvegicus [1]): 40%

CCOC(=O)c1c(NC(C)=O)c2cccnc2n(CC)c1=O
Control (Rattus norvegicus [1]): 67%

CCOC(=O)c1c(N2CCN(C(=O)OCC)CC2)c2ccc(C)nc2n(CC)c1=O
Control (Rattus norvegicus [1]): 70%

CCOC(=O)c1c(N2CCOCC2)c2ccc(C)nc2n(CC)c1=O
Control (Rattus norvegicus [1]): 22%

CCn1c(=O)c(C#N)c(N2CCCC2)c2ccc(C)nc21
Control (Rattus norvegicus [1]): 67%

CCOC(=O)c1c(O)c2ccc(C)nc2n(C)c1=O
Control (Rattus norvegicus [1]): 51%

CCOC(=O)c1c(N)c2cccnc2n(C)c1=O
Control (Rattus norvegicus [1]): 21%

CCOC(=O)c1c(O)nc2ncccc2c1N
Control (Rattus norvegicus [1]): 44%

C=CCn1c(=O)c(C(=O)OCC)c(N2CCCC2)c2ccc(C)nc21
Control (Rattus norvegicus [1]): 59%

Nc1c(C(=O)O)c(O)nc2ncccc12
Control (Rattus norvegicus [1]): 72%

CCOC(=O)c1c(N(C(C)=O)C(C)=O)c2c(C)cc(C)nc2n(CC)c1=O
Control (Rattus norvegicus [1]): 76%

CCOC(=O)c1c(N2CCN(C)CC2)c2cccnc2n(CC)c1=O
Control (Rattus norvegicus [1]): 17%

CCOC(=O)c1c(N)c2c(C)cc(C)nc2n(CC)c1=O
Control (Rattus norvegicus [1]): 50%

CCOC(=O)c1c(OCC)c2ccc(C)nc2n(CC)c1=O
Control (Rattus norvegicus [1]): 46%

CCOC(=O)c1c(O)nc2nc(C)cc(C)c2c1N
Control (Rattus norvegicus [1]): 89%

C=CCn1c(=O)c(C(=O)OCC)c(N)c2cccnc21
Control (Rattus norvegicus [1]): 22%

CCOC(=O)c1c(N2CCN(C)CC2)c2ccc(C)nc2n(C)c1=O
Control (Rattus norvegicus [1]): 9%

CCOC(=O)C(=O)Nc1c(C(=O)OCC)c(=O)n(CC)c2ncccc12
Control (Rattus norvegicus [1]): 28%

CCOC(=O)c1c(N)c2cccnc2n(CC)c1=O
Control (Rattus norvegicus [2]): 55% | Control (Rattus norvegicus [3]): 35% | Control (Rattus norvegicus [4]): 58% | Control (Rattus norvegicus [1]): 18% | Control (Rattus norvegicus [8]): 100% | Control (Canis familiaris [9]): 97% | Control (Rattus norvegicus [6]): 17% | Control (Canis familiaris [10]): 62% | Control (Canis familiaris [7]): 92%

C=CCn1c(=O)c(C(=O)OCC)c(O)c2ccc(C)nc21
Control (Rattus norvegicus [1]): 73%

CCNC(=O)c1c(N)c2cccnc2n(CC)c1=O
Control (Rattus norvegicus [1]): 28%

CCNc1cc(C)c2c(N)c(C(=O)OCC)c(=O)n(CC)c2n1
Control (Rattus norvegicus [1]): 58%

CCOC(=O)c1c(N2CCCC2)c2ccc(C)nc2n(C)c1=O
Control (Rattus norvegicus [1]): 32%

CCOC(=O)c1c(O)c2ccc(C)nc2n(CC)c1=O
Control (Rattus norvegicus [1]): 53%

CCCCOC(=O)c1c(N)c2cccnc2n(CC)c1=O
Control (Rattus norvegicus [1]): 26%

CCOC(=O)c1c(NC(=O)C(F)(F)F)c2cccnc2n(CC)c1=O
Control (Rattus norvegicus [1]): 22%

CCOC(=O)c1c(N2CC[N+](C)(C)CC2)c2ccc(C)nc2n(CC)c1=O.[Cl-]
Control (Rattus norvegicus [1]): 123%

CCOC(=O)c1c(N2CCN(C)CC2)c2cccnc2n(C)c1=O
Control (Rattus norvegicus [1]): 25%

CCOC(=O)c1c(N(CC)CC)c2ccc(C)nc2n(CC)c1=O
Control (Rattus norvegicus [1]): 55%

CCOC(=O)c1c(N)c2ccc(C)nc2n(CC)c1=O
Control (Rattus norvegicus [1]): 33%

CCOC(=O)c1c(NCC(O)c2ccccc2)c2ccc(C)nc2n(CC)c1=O (stereo unspecified)
Control (Rattus norvegicus [1]): 111%

CN/C(=N\CCSCc1nc[nH]c1C)NC#N [CIMETIDINE]
Inhibition of gastric acid secretion (% relative to control) (Rattus norvegicus [1]): 80%
